Structures can show the parent of a compound that is named as a salt. Where two headings read alike, the source gives them in different places.
Columns and labels:
[1] = tested on: SUDHL-1 cells (human anaplastic large T-cell lymphoma cell line); assay: Prevention of β-D-GA-related cytotoxicity by natural nucleosides, SUDHL-1 cells; type: cell-based; details: 50 μM natural nucleoside; SUDHL-1 cells, 3 days; FIG. 4
Experimental: The prevention of β-D-GA-related cytotoxicity in CEM cells (human T-cell lymphoma) and in the SUDHL-1 cells (human anaplastic large T-cell lymphoma cell line) was studied by adding natural nucleosides. This experiment was initiated by adding 50 μM of natural nucleosides into the media, together with increasing concentration of β-D-GA. CEM cells were seeded at 2500 cells per well and incubated for 4 days (=fast growing cell line with a doubling time of 1.3 days). SUDHL-1 cells were seeded at 10,000 cells/well, and incubated for 3 days (=slow growing cell line, doubling time 3 days). The result of this experiment is plotted in FIG. 4.

[2] = tested on: human malignant T and B cells and various tumor cell lines; assay: Toxicity profile against human malignant T and B cells and various tumor cell lines (MTT, IC50); type: cell-based; details: Homo sapiens, MTT assay, 3-5 days
Experimental: (§1) Cytotoxicity testing as performed here are standard techniques. Briefly, cells are seeded in 96-well plates at various concentrations (dependent on cell type, duration of assay), typically at 5×10^3 cells per well, in the presence of increasing concentrations of the test compound (0, 1, 3, 10, 33, and 100 μM). Depending on the cell-type incubation with test compound can vary in time, but is usually within the range of 3 to 5 days. Cell viability and mitochondrial activity are measured by adding the MTT-dye (Promega), followed by eight hours of incubation. Afterwards the plates containing the dye are fixed by adding a stop-solution followed by another eight hour incubation. Finally, absorbance is read at 570 nm. Such methodologies are well described and available from the manufacturer (Promega).
In order to explore the complete potential of this compound, a set of human malignant T and B cells and various tumor cell lines were incubated with […] at varying concentrations, and after the absorbance was read, an IC50 value was calculated. As a control, Ara-C, 5FU, and cyclo-heximide was taken alongside (Table 26).

Vero cells = assay: cells; type: cell-based; details: Chlorocebus sabaeus, Vero, read-out: Toxicity IC50
Experimental: as §1, with “The cytotoxicity testing” for “Cytotoxicity testing”, “performed herein is a” for “performed here are”, “standard technique.” for “standard techniques.”, “μM). After three (Vero cells), or four (CEM cells), or five (PBM cells) day-incubation, cell” for “μM). Depending on the cell-type incubation with test compound can vary in time, but is usually within the range of 3 to 5 days. Cell”, “by a 8” for “by eight”, “hours” for “hours of”

CEM cells = assay: cells; type: cell-based, human; details: Homo sapiens, CCRF-CEM, read-out: Toxicity IC50
Experimental: as §1, with “The cytotoxicity testing” for “Cytotoxicity testing”, “performed herein is a” for “performed here are”, “standard technique.” for “standard techniques.”, “μM). After three (Vero cells), or four (CEM cells), or five (PBM cells) day-incubation, cell” for “μM). Depending on the cell-type incubation with test compound can vary in time, but is usually within the range of 3 to 5 days. Cell”, “by a 8” for “by eight”, “hours” for “hours of”

PBM cells = assay: cells; type: cell-based, human; details: Homo sapiens, PBMC, read-out: Toxicity IC50
Experimental: as §1, with “The cytotoxicity testing” for “Cytotoxicity testing”, “performed herein is a” for “performed here are”, “standard technique.” for “standard techniques.”, “μM). After three (Vero cells), or four (CEM cells), or five (PBM cells) day-incubation, cell” for “μM). Depending on the cell-type incubation with test compound can vary in time, but is usually within the range of 3 to 5 days. Cell”, “by a 8” for “by eight”, “hours” for “hours of”

Nc1ccn([C@@H]2O[C@H](CO)C[C@H]2O)c(=O)n1 (as salt: hemisulfate)
melting point: 202 to 203 °C (dec.)

O=c1[nH]c(=O)n([C@@H]2O[C@H](CO)[C@@H](O)[C@H]2O)c2nn[nH]c12 (hydrate or solvate)
melting point: 164 to 166 °C (dec.)

Nc1ccn([C@H]2C[C@H](O)[C@@H](CO)O2)c(=O)n1 [2′-Deoxycytidine]
prevention of β-D-GA toxicity, in words [1]: modest preventive activity effect

C[C@@H]1C[C@@H]([C@H](O)CC2CC(=O)NC(=O)C2)C(=O)[C@@H](C)C1 [cyclo-heximide]
IC50 ([2]; B-cell, read-out: Toxicity IC50, H9 (human T-cell lymphoblast cell line)): 1000 nM | IC50 ([2]; B-cell, read-out: Toxicity IC50, JY (human B-cell lymphoma cell line, EBV transformed)): 800 nM | IC50 ([2]; BL-41, read-out: Toxicity IC50, BL41 (human B-cell lymphoma cell line)): 300 nM | IC50 ([2]; HepG2, read-out: Toxicity IC50, HEPG2 (human liver carcinoma cell line)): 3600 nM | IC50 ([2]; LNCaP, read-out: Toxicity IC50, LNCaP (human prostate adenocarcinoma cell line)): 2400 nM | IC50 ([2]; MCF7, read-out: Toxicity IC50, MCF-7 (human breast carcinoma cell line)): 1500 nM | IC50 ([2]; SK-MEL-28, read-out: Toxicity IC50, SK-MEL-28 (human melanoma cell line)): 1000 nM | IC50 ([2]; SK-MES-1, read-out: Toxicity IC50, SK-MES-1 (human lung squamous carcinoma cell line)): 3400 nM | IC50 ([2]; SU-DHL-1, read-out: Toxicity IC50, SUDHL-1 (human anaplastic large T-cell lymphoma cell line)): 300 nM | IC50 ([2]; SUP-T1, read-out: Toxicity IC50, SupT1 (human T-cell lymphoblast cell line)): 600 nM | IC50 (Vero cells): 2100 nM | IC50 (CEM cells): 100 nM | IC50 (PBM cells): 2600 nM

From patent US10100076B2, “Modified nucleosides for the treatment of viral infections and abnormal cellular proliferation” (priority 2000, dated 2018)
